Measurements as given in patent publication US8853406B2, “Substituted phenylenediamines as inhibitors of the interaction between MDM2 and P53” (Janssen Pharmaceutica NV, priority 2007, dated 2014).

How the values were obtained:
Assay type in all cases: physicochemical
[1] = Crystallographic stability of Form I (TGA, DSC, XRPD, IR after storage); set-up: key to XRD / IR: ~Ref: identical with reference; Cryst.: crystalline
Method: The crystallographic stability of Form I of compound No. 1 was studied according to the following procedure:
after storage of the compound in open conditions for a period of six weeks at room temperature (RT) under <5%, 56% and 75% relative humidity (RH), 50° C. and 40° C./75% RH., the samples were analyzed with thermogravimetry (TGA), differential scanning calorimetry (DSC), X-ray powder diffraction (XRPD) and infrared spectroscopy (IR).

[2] = Physical properties of the solid state forms
Method: Form I was denoted as a crystalline, non-hygroscopic solid that melts at approximately 192° C. Form II was described as a crystalline solid with a melting point at approximately 186° C.

[3] = Chemical stability of Form I (HPLC and visual inspection after storage)
Method: The chemical stability of Form I of compound No. 1 was studied according to the following procedure:
Form I was stored in different open conditions for periods of 1, 4 and 8 weeks. These conditions are 40° C./75% RH, 50° C., RT/<5% RH, RT/56% RH, RT/75% RH and 0.3 da ICH light.
The compounds were analyzed after storage by HPLC and by visual inspection.

[4] = Slurry conversion experiment; settings: various solvents, 50° C., 24 hours
Method: Concentrated/saturated solutions of compound No. 1 drug substance were prepared at 50° C. in 13 different solvents (water, methanol, ethanol, 2-propanol, acetone, acetonitrile, toluene, tetrahydrofuran, dichloromethane, 2-butanone, ethyl acetate, dimethylformamide, 1-methoxy-2-propanol) to support the automated polymorph screen. […] The slurry solids were retrieved from their solvent systems, dried under an air stream, placed under vacuum at room temperature overnight, and then analyzed for slurry conversion using XRD.

Cc1cc(Nc2ccnc3c2CCC3O)ccc1NCCc1c[nH]c2c(C)cccc12 (centres unmarked) [Form I]
App ([1]; 0 days): brown-grey | DSC Max ([1]; 0 days): 192.1 °C | DSC ΔH ([1]; 0 days): 122 J/g | IR ([1]; 0 days): Cryst., Ref | TGA <175° C. ([1]; 0 days): 0.05% | TGA <225° C. ([1]; 0 days): 0.19% | XRD ([1]; 0 days): Cryst., Ref | crystallographic stability ([1]; open storage six weeks, all conditions): crystallographically stable | App ([1]; six weeks open, 40° C./75% RH): brown-grey | DSC Max ([1]; six weeks open, 40° C./75% RH): 191.7 °C | DSC ΔH ([1]; six weeks open, 40° C./75% RH): 123 J/g | IR ([1]; six weeks open, 40° C./75% RH): ~Ref | TGA <175° C. ([1]; six weeks open, 40° C./75% RH): 0.06% | TGA <225° C. ([1]; six weeks open, 40° C./75% RH): 0.19% | XRD ([1]; six weeks open, 40° C./75% RH): ~Ref | App ([1]; six weeks open, 50° C.): brown-grey | DSC Max ([1]; six weeks open, 50° C.): 191.6 °C | DSC ΔH ([1]; six weeks open, 50° C.): 122 J/g | IR ([1]; six weeks open, 50° C.): ~Ref | TGA <175° C. ([1]; six weeks open, 50° C.): 0% | TGA <225° C. ([1]; six weeks open, 50° C.): 0.2% | XRD ([1]; six weeks open, 50° C.): ~Ref | App ([1]; six weeks open, RT/56% RH): brown-grey | DSC Max ([1]; six weeks open, RT/56% RH): 191.8 °C | DSC ΔH ([1]; six weeks open, RT/56% RH): 108 J/g | IR ([1]; six weeks open, RT/56% RH): ~Ref | TGA <175° C. ([1]; six weeks open, RT/56% RH): 0.15% | TGA <225° C. ([1]; six weeks open, RT/56% RH): 0.2% | XRD ([1]; six weeks open, RT/56% RH): ~Ref | App ([1]; six weeks open, RT/75 % RH): brown-grey | DSC Max ([1]; six weeks open, RT/75 % RH): 191.7 °C | DSC ΔH ([1]; six weeks open, RT/75 % RH): 112 J/g | IR ([1]; six weeks open, RT/75 % RH): ~Ref | TGA <175° C. ([1]; six weeks open, RT/75 % RH): 0.14% | TGA <225° C. ([1]; six weeks open, RT/75 % RH): 0.25% | XRD ([1]; six weeks open, RT/75 % RH): ~Ref | App ([1]; six weeks open, RT/<5% RH): brown-grey | DSC Max ([1]; six weeks open, RT/<5% RH): 191.7 °C | DSC ΔH ([1]; six weeks open, RT/<5% RH): 125 J/g | IR ([1]; six weeks open, RT/<5% RH): ~Ref | TGA <175° C. ([1]; six weeks open, RT/<5% RH): 0% | TGA <225° C. ([1]; six weeks open, RT/<5% RH): 0.31% | XRD ([1]; six weeks open, RT/<5% RH): ~Ref | hygroscopicity [2]: non-hygroscopic | Appearance ([3]; 0.3da ICH light (1 week)): brown-grey | HPLC Sum of impurities ([3]; 0.3da ICH light (1 week)): 0.18% | Appearance ([3]; 40° C./75% RH, 1 week): brown-grey | HPLC Sum of impurities ([3]; 40° C./75% RH, 1 week): 0.13% | Appearance ([3]; 40° C./75% RH, 4 weeks): brown-grey | HPLC Sum of impurities ([3]; 40° C./75% RH, 4 weeks): 0.14% | Appearance ([3]; 40° C./75% RH, 8 weeks): brown-grey | HPLC Sum of impurities ([3]; 40° C./75% RH, 8 weeks): 0.2% | Appearance ([3]; 50° C., 1 week): brown-grey | HPLC Sum of impurities ([3]; 50° C., 1 week): 0.28% | Appearance ([3]; 50° C., 4 weeks): brown-grey | HPLC Sum of impurities ([3]; 50° C., 4 weeks): 0.14% | Appearance ([3]; 50° C., 8 weeks): brown-grey | HPLC Sum of impurities ([3]; 50° C., 8 weeks): 0.24% | Appearance ([3]; RT/56% RH, 4 weeks): brown-grey | HPLC Sum of impurities ([3]; RT/56% RH, 4 weeks): 0.22% | Appearance ([3]; RT/56% RH, 8 weeks): brown-grey | HPLC Sum of impurities ([3]; RT/56% RH, 8 weeks): 0.24% | Appearance ([3]; RT/75% RH, 4 weeks): brown-grey | HPLC Sum of impurities ([3]; RT/75% RH, 4 weeks): 0.2% | Appearance ([3]; RT/75% RH, 8 weeks): brown-grey | HPLC Sum of impurities ([3]; RT/75% RH, 8 weeks): 0.18% | Appearance ([3]; RT/<5% RH, 4 weeks): brown-grey | HPLC Sum of impurities ([3]; RT/<5% RH, 4 weeks): 0.19% | Appearance ([3]; RT/<5% RH, 8 weeks): brown-grey | HPLC Sum of impurities ([3]; RT/<5% RH, 8 weeks): 0.24% | Appearance ([3]; Reference (1 week)): brown-grey | HPLC Sum of impurities ([3]; Reference (1 week)): 0.23% | chemical stability ([3]; open storage 1, 4 and 8 weeks, all investigated conditions): chemically stable in all investigated conditions | form conversion when slurried [4]: No form conversion was observed
